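Briefly, cells in 96-well plates were exposed to five compound concentrations for 48 h, and endpoints were estimated by linear interpolation. The concentration for full growth arrest is given as TGI.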

From PubChem BioAssay (NCI) come the findings set out here.

Some test systems named below: 786-0 renal; A498 renal; EKVX NSCLC; HCT-116 colon; HS 578T breast; MALME-3M melanoma; MDA-MB-435; MOLT-4 leukemia; NCI-H460 lung; NCI/ADR-RES ovarian; OVCAR-5 ovarian; OVCAR-8 ovarian; SF-268 CNS; SF-295 CNS; SF-539 CNS; SNB-75 CNS; UACC-257 melanoma; UACC-62 melanoma; RPMI-8226 leukemia; TK-10 renal.
Common to all, as to assay: NCI tumour cell line growth inhibition, 48 h

As for `CCCC1(NC(=O)C(F)(F)F)CC(OC)OC2COC(c3ccccc3)OC21` (stereo not drawn), the TGI in the experiment with 786-0 renal, in the experiment with A498 renal, in the experiment with EKVX NSCLC, in the experiment with HCT-116 colon, with HS 578T breast and in the experiment with MALME-3M melanoma was more than 100 µM each time. The TGI in the experiment with MDA-MB-435, in the experiment with MOLT-4 leukemia, in the experiment with NCI-H460 lung, in the experiment with NCI/ADR-RES ovarian, in the experiment on OVCAR-5 ovarian and in the experiment with OVCAR-8 ovarian was more than 100 µM throughout. Also, the TGI in the experiment on SF-268 CNS, in the experiment with SF-295 CNS, in the experiment with SF-539 CNS, in the experiment on SNB-75 CNS, in the experiment with UACC-257 melanoma and with UACC-62 melanoma was more than 100 µM in each case.

`O=Nc1c(O)cc(Nc2ccc(Br)cc2)c2ccccc12`: the TGI was 27.3 µM with 786-0 renal; 22.2 µM in the experiment on A498 renal; more than 100 µM in the experiment on EKVX NSCLC; more than 59.2 µM in the experiment with HCT-116 colon; more than 28.4 µM in the experiment with HS 578T breast; 3.37 µM in the experiment with MDA-MB-435. The TGI in the experiment on MOLT-4 leukemia was 42 µM; in the experiment with NCI-H460 lung, 11 µM; with NCI/ADR-RES ovarian, 33.1 µM; with OVCAR-5 ovarian, 29.8 µM; with OVCAR-8 ovarian it was 37.2 µM; in the experiment with RPMI-8226 leukemia, more than 86.9 µM. Besides, the TGI in the experiment with SF-268 CNS was more than 55.6 µM; in the experiment with SF-295 CNS, 2.98 µM; in the experiment with SF-539 CNS, more than 100 µM; with TK-10 renal, 27.7 µM; in the experiment on UACC-257 melanoma, 3.33 µM.

With `C=CCOc1ccc(/C(N=Nc2ccc([N+](=O)[O-])cc2)=N/NC(=O)c2ccccc2)cc1OC`, the TGI in the experiment with 786-0 renal, in the experiment with A498 renal, in the experiment on EKVX NSCLC, in the experiment with HCT-116 colon, in the experiment on HS 578T breast and with MALME-3M melanoma was more than 100 µM in each case. The TGI in the experiment with MDA-MB-435, in the experiment on MOLT-4 leukemia, in the experiment on NCI-H460 lung, in the experiment on NCI/ADR-RES ovarian, with OVCAR-5 ovarian and with OVCAR-8 ovarian was more than 100 µM each time. For the same compound, the TGI in the experiment with SF-268 CNS, with SF-295 CNS, with SF-539 CNS, with SNB-75 CNS, in the experiment on TK-10 renal and with UACC-257 melanoma was more than 100 µM throughout. The same compound had a TGI in the experiment on UACC-62 melanoma of more than 100 µM.

For `CC(=O)CCCCC(=O)Nc1ccc(CC(NC(=O)OC(C)(C)C)C(=O)NCC(=O)OCc2ccccc2)cc1` (stereo not drawn), the TGI is 49 µM in the experiment with 786-0 renal; 60.6 µM with A498 renal; more than 100 µM in the experiment on EKVX NSCLC; 37.8 µM in the experiment with HCT-116 colon; 48.4 µM with HS 578T breast; 40.4 µM in the experiment with MALME-3M melanoma. Also, the TGI in the experiment on MDA-MB-435 is 36 µM; in the experiment with MOLT-4 leukemia it was 66.4 µM; in the experiment on NCI-H460 lung, 43 µM; in the experiment with NCI/ADR-RES ovarian it was more than 100 µM; with OVCAR-5 ovarian it was more than 100 µM; in the experiment on OVCAR-8 ovarian it was 39.7 µM. The TGI in the experiment on RPMI-8226 leukemia is 39.5 µM; in the experiment with SF-268 CNS, 48.3 µM; in the experiment on SF-295 CNS, 35.6 µM; in the experiment on SF-539 CNS, 34.1 µM; in the experiment on TK-10 renal, more than 100 µM.

For the compound `N#CC12C(=O)N3C(=NC(c4ccccc4)NC3c3ccccc3)C1(C#N)C(c1ccccc1)NC1=C2CCC1` (stereo not drawn), the TGI in the experiment on 786-0 renal, in the experiment with A498 renal, with EKVX NSCLC, in the experiment with HCT-116 colon, in the experiment on HS 578T breast and in the experiment on MALME-3M melanoma was more than 100 µM each time. Moreover, the TGI in the experiment with MDA-MB-435, in the experiment with MOLT-4 leukemia, in the experiment on NCI-H460 lung, with NCI/ADR-RES ovarian, in the experiment with OVCAR-5 ovarian and in the experiment with OVCAR-8 ovarian was more than 100 µM throughout. Moreover, the TGI in the experiment on RPMI-8226 leukemia, with SF-268 CNS, in the experiment on SF-295 CNS, with SNB-75 CNS, in the experiment on TK-10 renal and in the experiment on UACC-257 melanoma was more than 100 µM each time. The TGI in the experiment on UACC-62 melanoma was more than 100 µM.

Take `CS(=O)(=O)N1CC(CCl)c2ccc([N+](=O)[O-])cc21` (stereo not drawn): the TGI in the experiment with 786-0 renal, with A498 renal, in the experiment with EKVX NSCLC, in the experiment on HCT-116 colon, in the experiment with HS 578T breast and in the experiment on MALME-3M melanoma was more than 100 µM each time. Also, the TGI with MDA-MB-435, in the experiment on MOLT-4 leukemia, in the experiment on NCI-H460 lung, in the experiment with NCI/ADR-RES ovarian, with OVCAR-5 ovarian and in the experiment with OVCAR-8 ovarian was more than 100 µM in each case. Also, the TGI with RPMI-8226 leukemia, in the experiment with SF-268 CNS, with SF-295 CNS, in the experiment with SF-539 CNS, in the experiment with TK-10 renal and with UACC-257 melanoma was more than 100 µM throughout. In the experiment on UACC-62 melanoma, this compound gave a TGI of more than 100 µM.

`N=c1oc2c(Cl)cc(Cl)cc2cc1C(=O)Nc1cccc2ccccc12`: the TGI in the experiment on 786-0 renal was 12.8 µM; with A498 renal it was 23.7 µM; in the experiment with EKVX NSCLC it was more than 74.3 µM; in the experiment on HCT-116 colon, 40.6 µM; in the experiment on HS 578T breast it was more than 53.2 µM; with MALME-3M melanoma, more than 100 µM. In addition, the TGI is more than 100 µM in the experiment with MDA-MB-435; more than 37.5 µM with MOLT-4 leukemia; 62.1 µM in the experiment with NCI-H460 lung; 28.2 µM in the experiment with NCI/ADR-RES ovarian; more than 100 µM in the experiment with OVCAR-5 ovarian; 14.2 µM in the experiment with OVCAR-8 ovarian. Further, the TGI was 53.3 µM with RPMI-8226 leukemia; more than 100 µM with SF-268 CNS; 96.9 µM in the experiment on SF-295 CNS; 10.9 µM in the experiment on SNB-75 CNS; 4.71 µM in the experiment on TK-10 renal; more than 100 µM with UACC-257 melanoma. The TGI in the experiment with UACC-62 melanoma is more than 100 µM.
